According to US6518423B1, “Benzopiperidine derivatives” (Eisai Co., Ltd., priority 1996, dated 2003):

Row | Structure (SMILES) | melting point
1 | CCOC(=O)c1ncn(Cc2ccc3c(c2)Nc2nccnc2S3)c1C | 222 to 224 °C
2 | COCc1ccc2c(c1)Nc1nccnc1S2 | 189 to 192 °C
3 | C1=NCCCN1Cc1ccc2c(c1)Nc1nccnc1S2.Cl | 238 °C (dec.)
4 | OCC(O)CN1c2ccccc2Nc2nccnc21 (centres unmarked) | 191 to 194 °C
5 | CCOC(=O)c1ccc2c(c1)Nc1nccnc1N2C | 239 to 242 °C
6 | OC(c1ccc2c(c1)Nc1nccnc1S2)c1nccs1 (centres unmarked) | 110 to 114 °C
7 | COc1ccc(C2CCN(Cc3ccc4c(c3)Nc3nccnc3S4)CC2)cc1CC(=O)O | 174 to 176 °C
8 | CCc1ncnc2ncn(Cc3ccc4c(c3)Nc3nccnc3S4)c12 | > 275 °C
9 | C/C(=C\C(=O)O)CC1CCN(Cc2ccc3c(c2)Nc2nccnc2S3)CC1 | 126 to 130 °C
10 | CN1c2cc(O)ccc2Nc2nccnc21 | > 275 °C
11 | CN1c2ccc(CNC(=N)N)cc2Nc2nccnc21 | > 275 °C
12 | CS(=O)(=O)N1CCN(Cc2ccc3c(c2)Nc2nccnc2S3)CC1 | 221 to 222 °C
13 | CC(CCC1CCN(Cc2ccc3c(c2)Nc2ncccc2S3)CC1)C(=O)O (centres unmarked) | 113 to 115 °C
14 | COc1cc2c(cc1CN1CCC(CCC(C)C(=O)O)CC1)Nc1nccnc1S2 (centres unmarked) | 155 to 160 °C
15 | NC(=O)NCCN1c2ccccc2Nc2nccnc21 | 231 to 233 °C
16 | c1ccc(COCc2ccc3c(c2)Nc2nccnc2S3)cc1 | 118 to 120 °C
17 | Cl.N=C(N)c1ccc2c(c1)Nc1nccnc1S2 | > 280 °C
18 | CN1CC2CN(Cc3ccc4c(c3)Nc3nccnc3S4)CC(C1)C2CC(=O)O (centres unmarked) | 220 °C (dec.)
19 | CCOC(=O)CCCCCOc1ccc(NCc2ccc3c(c2)Nc2nccnc2S3)cn1 | 105 to 108 °C
20 | COC(c1cccnc1)c1ccc2c(c1)Nc1nccnc1S2 (centres unmarked) | 156 to 188 °C
21 | CC(C)(CC(=O)O)C1CCN(Cc2ccc3c(c2)Nc2nccnc2S3)CC1 | 272 to 275 °C
22 | CN1c2ccc(C#Cc3ccccc3)cc2Nc2nccnc21 | 245 to 247 °C
23 | c1cnc2c(n1)Nc1cc(Cn3cnc4ncncc43)ccc1S2 | 277 to 280 °C
24 | CCOC(=O)c1ccc2c(c1)Nc1nccnc1N2 | > 275 °C
25 | O=C1CC2(CCN(Cc3ccc4c(c3)Nc3nccnc3S4)CC2)CO1 | 180 to 182 °C
26 | c1ccc(C2CCN(c3ncnc4c3ncn4Cc3ccc4c(c3)Nc3nccnc3S4)CC2)cc1 | 239 to 241 °C

Row | Structure (SMILES) | melting point
27 | Cl.N=C(Cc1ccc2c(c1)Nc1nccnc1S2)NCCO | 174 to 175 °C
28 | O=S(=O)(c1ccccc1)N(Cc1ccc2c(c1)Nc1nccnc1S2)c1cccnc1 | 205 to 260 °C
29 | Cc1c(CO)ncn1Cc1ccc2c(c1)Nc1nccnc1S2 | > 270 °C (dec.)
30 | O=C(O)CCCN1CCC(NCc2ccc3c(c2)Nc2nccnc2S3)CC1 | 121 to 124 °C
31 | CC(CCC1CCN(C(=O)Cc2ccc3c(c2)Nc2nccnc2S3)CC1)C(=O)O (centres unmarked) | 84 to 89 °C
32 | CC(=O)Nc1ccc(-c2cn(Cc3ccc4c(c3)Nc3nccnc3S4)cn2)cc1 | 261 to 263 °C
33 | O=C(O)CC(=O)NC1CCN(Cc2ccc3c(c2)Nc2nccnc2S3)CC1 | 149 to 151 °C
34 | CC(O)c1ncnc2ncn(Cc3ccc4c(c3)Nc3nccnc3S4)c12 (centres unmarked) | 205 to 208 °C
35 | CN1c2ccc(C(=O)c3ccccn3)cc2Nc2nccnc21 | 261 to 262 °C
36 | CC(C)(CCC1CCN(Cc2ccc3c(c2)Nc2nccnc2S3)CC1)C(=O)O | 180 to 185 °C
37 | O=C(O)C1C2CN(Cc3ccc4c(c3)Nc3nccnc3S4)CC21 (centres unmarked) | > 275 °C
38 | O=C(O)c1ccc(NCc2ccc3c(c2)Nc2nccnc2S3)nc1 | 215 to 220 °C
39 | OC(CCc1ccccc1)c1ccc2c(c1)Nc1nccnc1S2 (centres unmarked) | 156 to 158 °C
40 | C/C(=C\C(=O)O)C1CCN(Cc2ccc3c(c2)Nc2nccnc2S3)CC1 | 207 to 209 °C
41 | O=C(O)CN1c2ccccc2Nc2nccnc21 | 210 to 212 °C
42 | CS(=O)(=O)/N=C/NC1CCN(Cc2ccc3c(c2)Nc2nccnc2S3)CC1 | 119 to 122 °C
43 | N=C(NC1CCN(Cc2ccc3c(c2)Nc2nccnc2S3)CC1)C(=O)O | 186 to 190 °C
44 | O=C(NCc1ccc2c(c1)Nc1nccnc1S2)c1ccncc1 | 249 to 253 °C (dec.)
45 | CN(Cc1ccc(S(N)(=O)=O)cc1)Cc1ccc2c(c1)Nc1nccnc1S2 | 181 to 184 °C
46 | CS(=O)(=O)NCC1CN(Cc2ccc3c(c2)Nc2nccnc2S3)C1 | 84 to 88 °C
47 | c1cnc2c(n1)Nc1cc(CN3CCc4sccc4C3)ccc1S2 | 182 to 184 °C
48 | Cc1cc(C)nc(NCc2ccc3c(c2)Nc2nccnc2S3)c1 | 162 to 165 °C
49 | Cc1c(C(C)(C)O)ncn1Cc1ccc2c(c1)Nc1nccnc1S2 | 264 to 266 °C
50 | O=C(O)C1CC2(C1)C1CCCC2CN(Cc2ccc3c(c2)Nc2nccnc2S3)C1 (centres unmarked) | 98 to 101 °C
51 | O=C(O)/C=C/c1nccn1Cc1ccc2c(c1)Nc1nccnc1S2 | 243 to 244 °C
52 | CS(=O)(=O)/N=C/NCc1ccc2c(c1)Nc1nccnc1S2 | 175 to 176 °C

Row | Structure (SMILES) | melting point
53 | O=C(O)CC(=O)N1CCC(NCc2ccc3c(c2)Nc2nccnc2S3)CC1 | 167 to 170 °C
54 | CC(CCC1CCN(CCc2ccc3c(c2)Nc2nccnc2S3)CC1)C(=O)O (centres unmarked) | 229 to 230 °C (dec.)
55 | CC1(O)CCN(Cc2ccc3c(c2)Nc2nccnc2S3)CC1 | 176 to 180 °C
56 | c1cc(CNCc2ccc3c(c2)Nc2nccnc2S3)ccn1 | 174 to 176 °C
57 | CS(=O)(=O)N1CCC(N(CC(=O)O)Cc2ccc3c(c2)Nc2nccnc2S3)CC1 | 185 to 189 °C
58 | NC(=O)C1CCCN1Cc1ccc2c(c1)Nc1nccnc1S2 (centres unmarked) | 194 to 197 °C
59 | O=C(O)CC1CC2CN(Cc3ccc4c(c3)Nc3nccnc3S4)CC2C1 (centres unmarked) [714] | 110 to 115 °C
60 | CCc1ccc(NCc2ccc3c(c2)Nc2nccnc2S3)cn1 | 202 to 204 °C
61 | OCC(O)C1CCN(Cc2ccc3c(c2)Nc2nccnc2S3)CC1 (centres unmarked) | 182 to 185 °C
62 | O=C(O)Cc1ccccc1C1CCN(Cc2ccc3c(c2)Nc2nccnc2S3)CC1 | 152 to 154 °C
63 | C[C@@H]1CN(c2ncnc3c2ncn3Cc2ccc3c(c2)Nc2nccnc2S3)C[C@H](C)O1 | 227 to 229 °C
64 | O=C(O)CSc1ccc(C(O)c2ccc3c(c2)Nc2nccnc2S3)cn1 (centres unmarked) | 65 to 70 °C
65 | O=S(=O)(NC1CCN(Cc2ccc3c(c2)Nc2nccnc2S3)CC1)c1ccccc1 | 157 to 158 °C
66 | CCOC(=O)/C=C/c1ccc2c(c1)Nc1nccnc1N2C | 190 to 191 °C
67 | O=C(O)C1(c2ccc(O)cc2)CCN(Cc2ccc3c(c2)Nc2nccnc2S3)CC1 | 260 to 262 °C
68 | NS(=O)(=O)NC1CCN(Cc2ccc3c(c2)Nc2nccnc2S3)CC1 | 196 to 199 °C
69 | CN(CCCC(C)(C)C(=O)O)Cc1ccc2c(c1)Nc1nccnc1S2 | 200 to 202 °C
70 | O=C(O)CNS(=O)(=O)NC1CCN(Cc2ccc3c(c2)Nc2nccnc2S3)CC1 | 195 to 196 °C
71 | OC(c1cncnc1)c1ccc2c(c1)Nc1nccnc1S2 (centres unmarked) | 218 to 221 °C
72 | OCCC1C2CCCC1CN(Cc1ccc3c(c1)Nc1nccnc1S3)C2 (centres unmarked) | 123 to 127 °C
73 | CC(C)(CCCN1CCN(Cc2ccc3c(c2)Nc2nccnc2S3)CC1)C(=O)O [750] | 240 to 242 °C
74 | CC(CCC1CCN(C(=N)Cc2ccc3c(c2)Nc2nccnc2S3)CC1)C(=O)O.Cl (centres unmarked) | 166 to 171 °C
75 | O=C(c1ccccc1)N(Cc1ccc2c(c1)Nc1nccnc1S2)c1cccnc1 | 178 to 182 °C
76 | O=C(O)C=C1CCN(Cc2ccc3c(c2)Nc2nccnc2S3)CC1 | 214 to 216 °C
77 | CC(=NC#N)N1CCN(Cc2ccc3c(c2)Nc2nccnc2S3)CC1 | 234 °C (dec.)
78 | O=C(O)c1ccc(C2CCN(Cc3ccc4c(c3)Nc3nccnc3S4)CC2)cc1 | 265 to 268 °C

Row | Structure (SMILES) | melting point
79 | N#CN=C(Cc1ccc2c(c1)Nc1nccnc1S2)NCCO | 268 to 270 °C
80 | O=C(O)C(F)=C1C2CCCC1CN(Cc1ccc3c(c1)Nc1nccnc1S3)C2 | 223 to 225 °C (dec.)
81 | CC(C)(CC(=O)O)CC1CCN(Cc2ccc3c(c2)Nc2nccnc2S3)CC1 | 230 to 232 °C
82 | c1cc2c(cn1)Sc1ccc(CN3CCCCC3)cc1N2 | 163 to 166 °C
83 | O=C(O)C1CCC2(CC1)CCN(Cc1ccc3c(c1)Nc1nccnc1S3)C2 (centres unmarked) | 146 °C (dec.)
84 | CN1c2ccc(C(O)C#Cc3ccccc3)cc2Nc2nccnc21 (centres unmarked) | 204 to 208 °C
85 | CS(=O)(=O)Nc1ccc(-c2cn(Cc3ccc4c(c3)Nc3nccnc3S4)cn2)cc1 | 253 to 255 °C
86 | N/C(=N\S(N)(=O)=O)C1CCN(Cc2ccc3c(c2)Nc2nccnc2S3)CC1 | 202 to 206 °C
87 | c1ccc2c(c1)Nc1nccnc1N2 | 215 to 217 °C
88 | c1cnc2c(n1)Nc1cc(Cn3cnc4ncnc(N5CCOCC5)c43)ccc1S2 | 269 to 273 °C
89 | CN(C)c1c(N2CCN(Cc3ccc4c(c3)Nc3nccnc3S4)CC2)c(=O)c1=O | 296 to 300 °C (dec.)
90 | N#CN=CN1CCN(Cc2ccc3c(c2)Nc2nccnc2S3)CC1 | 238 to 241 °C (dec.)
91 | O=c1ccccn1Cc1ccc2c(c1)Nc1nccnc1S2 | 260 to 261 °C
92 | CS(=O)(=O)N1CCCN(Cc2ccc3c(c2)Nc2nccnc2S3)CC1 | 158 to 160 °C
93 | CC(C)NC(Cc1ccc2c(c1)Nc1nccnc1S2)=NC#N | 266 to 268 °C
94 | O=C(O)C1CCN(CCCc2ccc3c(c2)Nc2nccnc2S3)CC1 | 262 to 264 °C
95 | CN1c2ccc(C(O)c3nnc[nH]3)cc2Nc2nccnc21 (centres unmarked) | > 275 °C
96 | O=C(O)CC1(O)C2CCCCCC1CN(Cc1ccc3c(c1)Nc1nccnc1S3)C2 (centres unmarked) | 217 to 218 °C (dec.)
97 | O=C(O)c1ccc(C(O)c2nccn2Cc2ccc3c(c2)Nc2nccnc2S3)cc1 (centres unmarked) | 240 to 241 °C
98 | O=S(=O)(CCC1CCN(Cc2ccc3c(c2)Nc2nccnc2S3)CC1)N1CCOCC1 | 193 to 194 °C
99 | CC1(CC(=O)O)CC2(CCN(Cc3ccc4c(c3)Nc3nccnc3S4)CC2)C1 | 149 to 151 °C
100 | O=C(NCCc1cn(Cc2ccc3c(c2)Nc2nccnc2S3)cn1)c1ccccc1 | 231 to 233 °C
101 | c1ccc(CN2c3ccccc3Nc3nccnc32)cc1 | 194 to 196 °C
